Test results reported in patent publication US20200239530A1, “COMPOUNDS AND METHODS OF MODULATING PROTEIN DEGRADATION” (Vividion Therapeutics, Inc., priority 2017, published 2020).
Like-named read-outs stand apart in the source and are kept apart here.

Experiments:
Experiment in all cases: Cysteine liganding, probe competition
Type in all cases: binding
UniProt O43255 = target: T1, UniProt O43255 (Homo sapiens, UniProt O43255)
T1 construct: 200 μL of lysate containing 5 mg/ml proteome was treated with 2 μL of 100× compound stock; endogenous in cells
T1 sequence (O43255 1-324): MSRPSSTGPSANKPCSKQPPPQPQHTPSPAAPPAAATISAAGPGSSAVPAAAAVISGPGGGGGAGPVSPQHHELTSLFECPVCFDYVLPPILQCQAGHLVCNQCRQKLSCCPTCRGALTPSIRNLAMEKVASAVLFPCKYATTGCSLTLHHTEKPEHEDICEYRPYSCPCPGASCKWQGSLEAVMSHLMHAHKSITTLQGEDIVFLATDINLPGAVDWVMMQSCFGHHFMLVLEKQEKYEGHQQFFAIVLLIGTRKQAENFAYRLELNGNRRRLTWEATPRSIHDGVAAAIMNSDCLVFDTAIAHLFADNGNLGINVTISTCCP
Source text: (§1) The following 96-well sample prep protocol was used for sample preparation.

UniProt Q8IWR1 = target: T2, UniProt Q8IWR1 (Homo sapiens, UniProt Q8IWR1)
T2 construct: 200 μL of lysate containing 5 mg/ml proteome was treated with 2 μL of 100× compound stock; endogenous in cells
T2 sequence (Q8IWR1 1-403): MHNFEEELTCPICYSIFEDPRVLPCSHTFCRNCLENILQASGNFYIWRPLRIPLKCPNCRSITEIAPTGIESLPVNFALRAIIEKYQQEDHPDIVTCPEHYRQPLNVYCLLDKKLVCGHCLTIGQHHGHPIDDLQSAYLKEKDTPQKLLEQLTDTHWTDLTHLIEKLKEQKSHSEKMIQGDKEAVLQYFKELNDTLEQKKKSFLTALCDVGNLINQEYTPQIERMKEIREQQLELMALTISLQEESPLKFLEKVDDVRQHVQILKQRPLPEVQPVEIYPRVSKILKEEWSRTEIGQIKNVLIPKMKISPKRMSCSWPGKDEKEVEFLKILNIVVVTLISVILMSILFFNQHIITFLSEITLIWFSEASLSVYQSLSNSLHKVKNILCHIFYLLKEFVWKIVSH
Source text: as §1

UniProt Q7Z6J0 = target: T3, UniProt Q7Z6J0 (Homo sapiens, UniProt Q7Z6J0); settings: for inhibition at 100 µM: read-out: percent_inhibition
T3 construct: 200 μL of lysate containing 5 mg/ml proteome was treated with 2 μL of 100× compound stock; endogenous in cells
T3 sequence (Q7Z6J0 1-888): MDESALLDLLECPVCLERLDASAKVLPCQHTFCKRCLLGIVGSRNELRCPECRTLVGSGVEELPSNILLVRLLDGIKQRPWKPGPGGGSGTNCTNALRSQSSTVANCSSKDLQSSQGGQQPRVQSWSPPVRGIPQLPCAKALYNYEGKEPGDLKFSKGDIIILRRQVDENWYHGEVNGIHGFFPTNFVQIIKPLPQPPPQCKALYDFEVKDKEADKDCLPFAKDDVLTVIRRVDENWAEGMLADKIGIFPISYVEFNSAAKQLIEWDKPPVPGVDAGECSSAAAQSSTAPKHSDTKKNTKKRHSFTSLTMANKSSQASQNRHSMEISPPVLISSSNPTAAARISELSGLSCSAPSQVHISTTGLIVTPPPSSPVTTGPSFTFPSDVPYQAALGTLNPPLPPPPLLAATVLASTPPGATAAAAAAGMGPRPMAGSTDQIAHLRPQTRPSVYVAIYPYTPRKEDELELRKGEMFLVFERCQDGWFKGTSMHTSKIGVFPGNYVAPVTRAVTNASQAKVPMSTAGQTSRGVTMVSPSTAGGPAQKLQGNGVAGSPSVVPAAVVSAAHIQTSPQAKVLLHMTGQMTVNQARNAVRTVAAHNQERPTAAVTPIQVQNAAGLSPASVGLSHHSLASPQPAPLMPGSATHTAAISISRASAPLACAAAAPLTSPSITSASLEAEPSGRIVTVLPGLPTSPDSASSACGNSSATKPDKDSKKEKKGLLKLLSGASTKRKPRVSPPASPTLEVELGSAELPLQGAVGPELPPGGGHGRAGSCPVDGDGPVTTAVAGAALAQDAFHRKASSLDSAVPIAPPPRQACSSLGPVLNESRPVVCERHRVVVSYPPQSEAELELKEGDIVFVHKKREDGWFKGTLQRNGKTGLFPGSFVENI
Source text: as §1

UniProt Q86SE9 = target: T4, UniProt Q86SE9 (Homo sapiens, UniProt Q86SE9)
T4 construct: 200 μL of lysate containing 5 mg/ml proteome was treated with 2 μL of 100× compound stock; endogenous in cells
Source text: as §1

UniProt P78317 = target: T5, UniProt P78317 (Homo sapiens, UniProt P78317)
T5 construct: 200 μL of lysate containing 5 mg/ml proteome was treated with 2 μL of 100× compound stock; endogenous in cells
Source text: as §1

[1] = 500 uM, read-out: percent_inhibition

T4 sequence (Q86SE9 whole entry, change not shown): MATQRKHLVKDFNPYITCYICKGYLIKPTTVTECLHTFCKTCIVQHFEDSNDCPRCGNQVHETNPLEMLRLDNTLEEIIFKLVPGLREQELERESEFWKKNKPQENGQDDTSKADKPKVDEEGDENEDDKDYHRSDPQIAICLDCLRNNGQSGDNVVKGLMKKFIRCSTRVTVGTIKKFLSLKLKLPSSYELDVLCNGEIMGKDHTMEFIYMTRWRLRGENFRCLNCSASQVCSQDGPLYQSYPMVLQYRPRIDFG
T5 sequence (P78317 whole entry, change not shown): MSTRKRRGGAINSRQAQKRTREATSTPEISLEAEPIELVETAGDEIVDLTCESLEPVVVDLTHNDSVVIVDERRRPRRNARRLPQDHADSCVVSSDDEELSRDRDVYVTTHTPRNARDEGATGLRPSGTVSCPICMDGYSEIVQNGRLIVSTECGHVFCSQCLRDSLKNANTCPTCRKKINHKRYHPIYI

SMILES | percent_inhibition (UniProt O43255; 100 uM) | inhibition at 100 µM (UniProt O43255; 100 uM, read-out: percent_inhibition) | inhibition at 100 µM (UniProt Q8IWR1; read-out: KB02_100 uM_percent_inhibition) | KB02_500 uM_percent_inhibition (UniProt Q8IWR1; 500 uM) | inhibition at 500 µM (UniProt Q8IWR1; 500 uM, read-out: KB02_500 uM_percent_inhibition) | inhibition at 100 µM (UniProt Q7Z6J0) | inhibition at 500 µM (UniProt O43255; [1]) | inhibition at 100 µM (UniProt Q8IWR1; read-out: KB05_100 uM_percent_inhibition) | inhibition at 100 µM (UniProt Q86SE9; 100 uM, read-out: KB05_100 uM_percent_inhibition) | KB05_500 uM_percent_inhibition (UniProt Q86SE9; 500 uM) | inhibition at 500 µM (UniProt Q86SE9; 500 uM, read-out: KB05_500 uM_percent_inhibition) | inhibition at 500 µM (UniProt P78317; [1]) | percent_inhibition (UniProt Q7Z6J0; 100 uM) | KB03_100 uM_percent_inhibition (UniProt Q86SE9; 100 uM) | percent_inhibition (UniProt P78317; 100 uM)
COc1ccc2c(c1)CCCN2C(=O)CCl [KB02] | 20% | 31% | 46% | 66% | 58% | 42% | – | – | – | – | – | – | – | – | –
C=CC(=O)N(c1ccccc1)c1ccc(Br)cc1 [KB05] | – | – | – | – | – | 3% | 28% | 38% | 9% | 58% | 53% | 24% | 4% | – | –
O=C(CCl)Nc1cc(C(F)(F)F)cc(C(F)(F)F)c1 [KBO3] | – | – | – | – | – | – | – | – | – | – | – | – | – | 25% | 16%
